Values after ≈ are worked out from the molar mass of the structure shown.
Assays:
[1] = system: H9 (acute lymphoblastic leukemia) cells; assay: MTT cell growth inhibition, leukemia cells; assay type: cell-based, human; settings: Homo sapiens, H9, 72 h, MTT; for IC50: read-out: IC50; for IC90: read-out: IC90
Text: (§1) Leukemia cell lines: leukemia cell lines: K562adr (drug-resistant, chronic myeloid leukemia, CML), NB4 (acute promyelocytic leukemia, AML), Kasumi-1 (acute myeloid leukemia M2 type, AML-M2), Jurkat (acute lymphoblastic leukemia, ALL), all of which were donated by Cancer Research Institute of Zhejiang University, China; and H9 (acute lymphoblastic leukemia, ALL), which was purchased from China Center for Type Culture Collection.
(§2) Reagents: The standard sample of fangchinoline (FAN) was purchased from Ci Yuan Biotechnology Co., Ltd., Shaanxi, China; and the 7-substituted fangchinoline derivatives according to the present invention.
(§3) 6000 well-growing leukemia cells were obtained and inoculated into wells of a 96-well cell culture plate. The culture medium was a RPMI-1640 cell culture medium containing 10% fetal bovine serum. After adding the 7-substituted fangchinoline derivatives of different concentrations the next day and mixing uniformly, the plate was placed in a carbon dioxide cell incubator (5% CO2) at 37° C. and incubating for 72 hours. Then the viable cell concentration was determined by the MTT method.

[2] = system: Jurkat (acute lymphoblastic leukemia) cells; assay: MTT cell growth inhibition, leukemia cells; assay type: cell-based, human; settings: Homo sapiens, Jurkat, 72 h, MTT; for IC50: read-out: IC50; for IC90: read-out: IC90
Text: as §1, §2, §3

[3] = system: Kasumi-1 (acute myeloid leukemia M2 type) cells; assay: MTT cell growth inhibition, leukemia cells; assay type: cell-based, human; settings: Homo sapiens, Kasumi-1, 72 h, MTT; for IC50: read-out: IC50; for IC90: read-out: IC90
Text: as §1, §2, §3

[4] = system: NB4 (acute promyelocytic leukemia) cells; assay: MTT cell growth inhibition, leukemia cells; assay type: cell-based; settings: Homo sapiens, NB4, 72 h, MTT; for IC50: read-out: IC50; for IC90: read-out: IC90
Text: as §1, §2, §3

[5] = system: K562/ADR (K562adr, drug-resistant chronic myeloid leukemia) cells; assay: MTT cell growth inhibition, leukemia cells; assay type: cell-based; settings: Homo sapiens, K562/ADR, 72 h, MTT; for IC50: read-out: IC50; for IC90: read-out: IC90
Text: as §1, §2, §3

[6] = system: CNE (nasopharyngeal carcinoma) cells; assay: MTT cell growth inhibition, solid tumor cells; assay type: cell-based, human; settings: Homo sapiens, CNE, 72 h, MTT; for IC50: read-out: IC50; for IC90: read-out: IC90
Text: (§4) Hep-2 (laryngeal carcinoma), A549 (human lung cancer), CaES-17 (esophageal cancer cell), PC-3 (prostate cancer), CNE (nasopharyngeal carcinoma cell) and SK-OV-3 (ovarian cancer cell), all of which were purchased from China Center For Type Culture Collection; RKO (human colon adenocarcinoma cell), MGC-803 (human gastric cancer cell), MG-63 (osteosarcoma), and U87-MG (malignant glioma cell), all of which were purchased from Fuxiang Bio-tech Co. Ltd., Shanghai, China; PANC-1 (pancreatic cancer), Becap37 (human breast cancer cell), Hela (human cervical cancer cell) and Hep G2 (human liver cancer cell), all of which were donated by Cancer Research Institute of Zhejiang University, China.
as §3, with “human solid tumor” for “leukemia”, “DMEM High Glucose” for “a RPMI-1640”, “serum. The plate was placed in a carbon dioxide cell incubator (5% CO2) at 37° C. and incubated for 24 hours.” for “serum.”, “added with” for “adding the”, “concentration” for “concentrations the next day”, “incubated” for “incubating”

[7] = system: PC-3 (prostate cancer) cells; assay: MTT cell growth inhibition, solid tumor cells; assay type: cell-based, human; settings: Homo sapiens, PC-3, 72 h, MTT; for IC50: read-out: IC50; for IC90: read-out: IC90
Text: as §4
as §3, with “human solid tumor” for “leukemia”, “DMEM High Glucose” for “a RPMI-1640”, “serum. The plate was placed in a carbon dioxide cell incubator (5% CO2) at 37° C. and incubated for 24 hours.” for “serum.”, “added with” for “adding the”, “concentration” for “concentrations the next day”, “incubated” for “incubating”

[8] = system: CaEs-17 (esophageal cancer) cells; assay: MTT cell growth inhibition, solid tumor cells; assay type: cell-based, human; settings: Homo sapiens, CaEs17, CaEs-17, 72 h, MTT; for IC50: read-out: IC50; for IC90: read-out: IC90
Text: as §4
as §3, with “human solid tumor” for “leukemia”, “DMEM High Glucose” for “a RPMI-1640”, “serum. The plate was placed in a carbon dioxide cell incubator (5% CO2) at 37° C. and incubated for 24 hours.” for “serum.”, “added with” for “adding the”, “concentration” for “concentrations the next day”, “incubated” for “incubating”

[9] = system: PANC-1 (pancreatic cancer) cells; assay: MTT cell growth inhibition, solid tumor cells; assay type: cell-based, human; settings: Homo sapiens, PANC-1, 72 h, MTT; for IC50: read-out: IC50; for IC90: read-out: IC90
Text: as §4
as §3, with “human solid tumor” for “leukemia”, “DMEM High Glucose” for “a RPMI-1640”, “serum. The plate was placed in a carbon dioxide cell incubator (5% CO2) at 37° C. and incubated for 24 hours.” for “serum.”, “added with” for “adding the”, “concentration” for “concentrations the next day”, “incubated” for “incubating”

[10] = system: SK-OV-3 (ovarian cancer) cells; assay: MTT cell growth inhibition, solid tumor cells; assay type: cell-based, human; settings: Homo sapiens, SK-OV-3, 72 h, MTT; for IC50: read-out: IC50; for IC90: read-out: IC90
Text: as §4
as §3, with “human solid tumor” for “leukemia”, “DMEM High Glucose” for “a RPMI-1640”, “serum. The plate was placed in a carbon dioxide cell incubator (5% CO2) at 37° C. and incubated for 24 hours.” for “serum.”, “added with” for “adding the”, “concentration” for “concentrations the next day”, “incubated” for “incubating”

[11] = system: RKO (human colon adenocarcinoma) cells; assay: MTT cell growth inhibition, solid tumor cells; assay type: cell-based; settings: Homo sapiens, RKO, 72 h, MTT; for IC50: read-out: IC50; for IC90: read-out: IC90
Text: as §4
as §3, with “human solid tumor” for “leukemia”, “DMEM High Glucose” for “a RPMI-1640”, “serum. The plate was placed in a carbon dioxide cell incubator (5% CO2) at 37° C. and incubated for 24 hours.” for “serum.”, “added with” for “adding the”, “concentration” for “concentrations the next day”, “incubated” for “incubating”

[12] = system: A549 (human lung cancer) cells; assay: MTT cell growth inhibition, solid tumor cells; assay type: cell-based; settings: Homo sapiens, A549, 72 h, MTT; for IC50: read-out: IC50; for IC90: read-out: IC90
Text: as §4
as §3, with “human solid tumor” for “leukemia”, “DMEM High Glucose” for “a RPMI-1640”, “serum. The plate was placed in a carbon dioxide cell incubator (5% CO2) at 37° C. and incubated for 24 hours.” for “serum.”, “added with” for “adding the”, “concentration” for “concentrations the next day”, “incubated” for “incubating”

[13] = system: U87-MG (malignant glioma) cells; assay: MTT cell growth inhibition, solid tumor cells; assay type: cell-based; settings: Homo sapiens, U-87 MG, U87-MG, 72 h, MTT; for IC50: read-out: IC50; for IC90: read-out: IC90
Text: as §4
as §3, with “human solid tumor” for “leukemia”, “DMEM High Glucose” for “a RPMI-1640”, “serum. The plate was placed in a carbon dioxide cell incubator (5% CO2) at 37° C. and incubated for 24 hours.” for “serum.”, “added with” for “adding the”, “concentration” for “concentrations the next day”, “incubated” for “incubating”

[14] = system: Hep G2 (human liver cancer) cells; assay: MTT cell growth inhibition, solid tumor cells; assay type: cell-based; settings: Homo sapiens, HepG2, Hep G2, 72 h, MTT; for IC50: read-out: IC50; for IC90: read-out: IC90
Text: as §4
as §3, with “human solid tumor” for “leukemia”, “DMEM High Glucose” for “a RPMI-1640”, “serum. The plate was placed in a carbon dioxide cell incubator (5% CO2) at 37° C. and incubated for 24 hours.” for “serum.”, “added with” for “adding the”, “concentration” for “concentrations the next day”, “incubated” for “incubating”

[15] = system: MG-63 (osteosarcoma) cells; assay: MTT cell growth inhibition, solid tumor cells; assay type: cell-based; settings: Homo sapiens, MG-63, 72 h, MTT; for IC50: read-out: IC50; for IC90: read-out: IC90
Text: as §4
as §3, with “human solid tumor” for “leukemia”, “DMEM High Glucose” for “a RPMI-1640”, “serum. The plate was placed in a carbon dioxide cell incubator (5% CO2) at 37° C. and incubated for 24 hours.” for “serum.”, “added with” for “adding the”, “concentration” for “concentrations the next day”, “incubated” for “incubating”

[16] = system: Hep-2 (laryngeal carcinoma) cells; assay: MTT cell growth inhibition, solid tumor cells; assay type: cell-based; settings: Homo sapiens, Hep-2, 72 h, MTT; for IC50: read-out: IC50; for IC90: read-out: IC90
Text: as §4
as §3, with “human solid tumor” for “leukemia”, “DMEM High Glucose” for “a RPMI-1640”, “serum. The plate was placed in a carbon dioxide cell incubator (5% CO2) at 37° C. and incubated for 24 hours.” for “serum.”, “added with” for “adding the”, “concentration” for “concentrations the next day”, “incubated” for “incubating”

tumor = assay: Antitumor activity compared with fangchinoline, overall statement; assay type: cell-based; settings: tumor type not specified
[17] = system: RPMI 8226 (multiple myeloma) cells; assay: MTT cell growth inhibition, multiple myeloma cells; assay type: cell-based, human; settings: Homo sapiens, RPMI 8226, 72 h, MTT; for IC50: read-out: IC50; for IC90: read-out: IC90
Protocol: Myeloma cell lines: RPMI8226 (multiple myeloma), purchased from Fuxiang Bio-tech Co. Ltd., Shanghai, China.
as §3, with “well-growing” for “well-growing leukemia”, “incubated” for “incubating”

IC50 [1]	IC90 [1]	IC50 [2]	IC90 [2]	IC50 [3]	IC90 [3]	IC50 [4]	IC90 [4]	IC50 [5]	IC90 [5]	IC50 [6]	IC90 [6]	IC50 [7]	IC90 [7]	IC50 [8]	IC90 [8]	IC50 [9]	IC90 [9]	IC50 [10]	IC90 [10]	Structure (SMILES)	further results
1.96 µg/mL (≈ 2.96 µM)	4 µg/mL (≈ 6.03 µM)	0.52 µg/mL (≈ 0.785 µM)	1.89 µg/mL (≈ 2.85 µM)	1 µg/mL (≈ 1.51 µM)	3.39 µg/mL (≈ 5.11 µM)	0.57 µg/mL (≈ 0.86 µM)	1.88 µg/mL (≈ 2.84 µM)	0.33 µg/mL (≈ 0.498 µM)	1.31 µg/mL (≈ 1.98 µM)	1.8 µg/mL (≈ 2.72 µM)	3.8 µg/mL (≈ 5.73 µM)	3 µg/mL (≈ 4.53 µM)	5.46 µg/mL (≈ 8.24 µM)	1.53 µg/mL (≈ 2.31 µM)	5.6 µg/mL (≈ 8.45 µM)	1.42 µg/mL (≈ 2.14 µM)	4.65 µg/mL (≈ 7.02 µM)	2.38 µg/mL (≈ 3.59 µM)	3.94 µg/mL (≈ 5.94 µM)	C=C(C)COc1c(OC)cc2c3c1Oc1cc4c(cc1OC)CCN(C)[C@H]4Cc1ccc(cc1)Oc1cc(ccc1OC)C[C@@H]3N(C)CC2 [BS-FC-221]	IC50 [11]: 1.37 µg/mL (≈ 2.07 µM); IC90 [11]: 2.76 µg/mL (≈ 4.16 µM); IC50 [12]: 1.2 µg/mL (≈ 1.81 µM); IC90 [12]: 3.18 µg/mL (≈ 4.8 µM); IC50 [13]: 1.13 µg/mL (≈ 1.7 µM); IC90 [13]: 4.5 µg/mL (≈ 6.79 µM); IC50 [14]: 1.48 µg/mL (≈ 2.23 µM); IC90 [14]: 4.37 µg/mL (≈ 6.59 µM); IC50 [15]: 0.8 µg/mL (≈ 1.21 µM); IC90 [15]: 1.9 µg/mL (≈ 2.87 µM); IC50 [16]: 1.9 µg/mL (≈ 2.87 µM); IC90 [16]: 5.78 µg/mL (≈ 8.72 µM); antitumor activity compared with that of fangchinoline (tumor): significantly superior; IC50 [17]: 0.11 µg/mL (≈ 0.166 µM); IC90 [17]: 0.46 µg/mL (≈ 0.694 µM)
3.6 µg/mL (≈ 5.32 µM)	7.05 µg/mL (≈ 10.4 µM)	0.81 µg/mL (≈ 1.2 µM)	2.94 µg/mL (≈ 4.34 µM)	1.54 µg/mL (≈ 2.28 µM)	3.94 µg/mL (≈ 5.82 µM)	1.24 µg/mL (≈ 1.83 µM)	3.99 µg/mL (≈ 5.9 µM)	0.44 µg/mL (≈ 0.65 µM)	3 µg/mL (≈ 4.43 µM)	3.8 µg/mL (≈ 5.61 µM)	7.2 µg/mL (≈ 10.6 µM)	4.02 µg/mL (≈ 5.94 µM)	10.5 µg/mL (≈ 15.5 µM)	2.35 µg/mL (≈ 3.47 µM)	10.7 µg/mL (≈ 15.8 µM)	3.73 µg/mL (≈ 5.51 µM)	10.4 µg/mL (≈ 15.4 µM)	6.45 µg/mL (≈ 9.53 µM)	15.4 µg/mL (≈ 22.7 µM)	COc1ccc2cc1Oc1ccc(cc1)C[C@H]1c3cc(c(OC)cc3CCN1C)Oc1c(OC(=O)C3CC3)c(OC)cc3c1[C@H](C2)N(C)CC3 [BS-FC-304]	IC50 [11]: 1.79 µg/mL (≈ 2.64 µM); IC90 [11]: 3.45 µg/mL (≈ 5.1 µM); IC50 [12]: 2.24 µg/mL (≈ 3.31 µM); IC90 [12]: 5.59 µg/mL (≈ 8.26 µM); IC50 [13]: 1.68 µg/mL (≈ 2.48 µM); IC90 [13]: 4.97 µg/mL (≈ 7.34 µM); IC50 [14]: 2.49 µg/mL (≈ 3.68 µM); IC90 [14]: 9.42 µg/mL (≈ 13.9 µM); IC50 [15]: 2.32 µg/mL (≈ 3.43 µM); IC90 [15]: 5.72 µg/mL (≈ 8.45 µM); IC50 [16]: 4.95 µg/mL (≈ 7.31 µM); IC90 [16]: 12.2 µg/mL (≈ 18.1 µM); antitumor activity compared with that of fangchinoline (tumor): significantly superior; IC50 [17]: 0.16 µg/mL (≈ 0.236 µM); IC90 [17]: 0.98 µg/mL (≈ 1.45 µM)

Source: patent US9328122B2, “7-substituted Hanfangichin B derivative, and preparation method and use thereof” (HANGZHOU BENSHENG PHARMACEUTICAL CO., LTD., priority 2012, dated 2016)
